Measurements taken from US9278067B2, “Encapsulation of plasmid DNA (lipogenes™) and therapeutic agents with nuclear localization signal/fusogenic peptide conjugates into targeted liposome complexes” (Regulon, Inc., priority 2000, dated 2016).

Assays:
neuronal cell = settings: cited from earlier work
[1] = low concentrations (0.03-0.1 mM)
[2] = tested on: C-terminal fragments of the amyloid peptide; settings: cited from earlier work
[3] = cell culture; cited from earlier work
[4] = tested on: several different types of cells; settings: with monovalent cationic liposomal formulations (DC-Chol and lipofectin); cited from earlier work
[5] = pH 7.4; cited from earlier work
[6] = tested on: K562 human erythroleukemia cell cultures; assay: Transfection of K562 cells with plasmid pCMVβ, beta-galactosidase reporter expression; assay type: cell-based; settings: FIG. 2
complement system = settings: cited from earlier work
luciferase = settings: cited from earlier work
isolated lysosomes = settings: low concentrations of lipid; cited from earlier work

Compound: Non-aggregated amyloid beta-peptide (1-40): Alzheimer's beta-amyloid peptide 1-40, non-aggregated
- Properties: neuronal cell death (neuronal cell): Induces apoptotic neuronal

Compound: NCCCNCCCCNCCCN [Spermine]
- transfection efficiency [1]: enhanced significantly transfection efficiency

Compound: apoE2: apolipoprotein E isoform
- inhibition of amyloid peptide fusogenic and aggregational properties [2]: potent inhibitors

Compound: apoE3: apolipoprotein E isoform
- inhibition of amyloid peptide fusogenic and aggregational properties [2]: potent inhibitors

Compound: Protamine sulfate
- efficiency of adenovirus-mediated gene transfer [3]: significantly increased
- plasmid delivery into cells in vitro [4]: enhanced plasmid delivery

Compound: CC(C)CCC[C@@H](C)[C@H]1CC[C@H]2[C@@H]3CC=C4C[C@@H](OC(=O)NCCN(C)C)CC[C@]4(C)[C@H]3CC[C@]12C [DC-cholesterol, 3β[N—(N′,N′-dimethylaminoethane)carbamoyl]cholesterol]
- charged fraction [5]: about 50%
- cationic lipid compared by level of expression of the reporter beta-galactosidase gene ([6]; liposomes L2-L6 with DOPE): best cationic lipid

Compound: CCCCCCCCCCCCCCCCCCN(CCCCCCCCCCCCCCCCCC)C(=O)CNC(=O)C(CCCNCCCN)NCCCN (centres unmarked) [DOGS, Dioctadecylamidoglycylspermine]
- complement activation (complement system): Strong complement activation

Compound: polyhistidine
- DNA condensing reagent compared by level of expression of the reporter beta-galactosidase gene ([6]; 10 μg pCMVβ, polyK/polyR/polyH plus liposomes 7 nmoles/μg DNA): best DNA condensing reagent

Compound: poly(ethyleneimine)
- complement activation (complement system): Strong complement activation

Compound: CCCCCCCCCCCCCCOCC(C[N+](C)(C)CCO)OCCCCCCCCCCCCCC.[Br-] (centres unmarked) [DMRIE, N-[1-(2,3-dimyristyloxy)propyl]-N,N-dimethyl-N-(2-hydroxyethyl) ammonium bromide]
- charged fraction [5]: 100%

Compound: apoE4: apolipoprotein E isoform
- inhibition of amyloid peptide fusogenic and aggregational properties [2]: not apoE4

Compound: poly-L-lysine
- efficiency of adenovirus-mediated gene transfer [3]: significantly increased

Compound: CCCCCCCC/C=C\CCCCCCCC(=O)OCC(C[N+](C)(C)C)OC(=O)CCCCCCC/C=C\CCCCCCCC.[Cl-] (centres unmarked) [DOTAP, N-(1-(2,3-dioleoyloxy)propyl)-N,N,N-trimethylammonium chloride]
- charged fraction [5]: 100%
- increase of antisense activity of anti-luciferase oligonucleotide (luciferase): over 100 fold
- free activity of β-galactosidase of isolated lysosomes (membrane destabilization) (isolated lysosomes): striking increase in free activity of β-galactosidase
